For one cell line, relative viability results are on record in the supplement of paper PMC10307832.

What all share (test): relative viability (nuclei count vs DMSO), 5 days (fraction); higher = more cells survive
Compound in the assay “Bemcentinib + Decitabine”: Nc1nc(Nc2ccc3c(c2)CC[C@@H](N2CCCC2)CC3)nn1-c1cc2c(nn1)-c1ccccc1CCC2 [Bemcentinib] + Nc1ncn([C@H]2C[C@H](O)[C@@H](CO)O2)c(=O)n1 [Decitabine] (partner 2 µM)
The procedure, abridged:
(§1)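 Cells from lung cancer lines were seeded into 1536-well plates and, one day later, dosed by pin tool. Treatments were either a single drug or a fixed dose of an anchor drug with five library-drug doses (not always all listed) in √10 steps. After 5 days, nuclei were stained in a one-step fixation (final 0.05% Triton X-100, 1% formaldehyde, 1 ug/ml Hoechst) and counted on 4× images, and relative viability is the treated-to-vehicle nuclei ratio, as the median of duplicate plates.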

Compound in the assay “Axitinib + Foretinib”: CNC(=O)c1ccccc1Sc1ccc2c(/C=C/c3ccccn3)n[nH]c2c1 [Axitinib] + COc1cc2c(Oc3ccc(NC(=O)C4(C(=O)Nc5ccc(F)cc5)CC4)cc3F)ccnc2cc1OCCCN1CCOCC1 [Foretinib] (partner 0.25 µM)
The procedure, abridged:
as §1

Compound in the assay “Bemcentinib + Bortezomib”: Nc1nc(Nc2ccc3c(c2)CC[C@@H](N2CCCC2)CC3)nn1-c1cc2c(nn1)-c1ccccc1CCC2 [Bemcentinib] + CC(C)C[C@H](NC(=O)[C@H](Cc1ccccc1)NC(=O)c1cnccn1)B(O)O [Bortezomib] (partner 0.002 µM)
The gist of the method:
as §1

Compound in the assay “Axitinib + Linsitinib”: CNC(=O)c1ccccc1Sc1ccc2c(/C=C/c3ccccn3)n[nH]c2c1 [Axitinib] + C[C@]1(O)C[C@@H](c2nc(-c3ccc4ccc(-c5ccccc5)nc4c3)c3c(N)nccn32)C1 [Linsitinib] (partner 1 µM)
The gist of the method:
as §1

As to NCI-H650, the relative viability came out at 0.269 with Bemcentinib + Decitabine (first compound 0.04 µM); 0.301 in the assay with Bemcentinib + Decitabine (first compound 0.1265 µM); 0.282 with Bemcentinib + Decitabine (first compound 0.4 µM); 0.294 in the assay with Bemcentinib + Decitabine (first compound 1.265 µM); 0.347 with Bemcentinib + Decitabine (first compound 4 µM); 1.08 in the assay with Axitinib + Foretinib (first compound 0.005 µM). The relative viability with Axitinib + Foretinib (first compound 0.01581 µM) was determined as 1.12; with Axitinib + Foretinib (first compound 0.05 µM) it was 0.953; with Axitinib + Foretinib (first compound 0.1581 µM), 0.984; in the assay with Axitinib + Foretinib (first compound 0.5 µM), 1.07; with Bemcentinib + Bortezomib (first compound 0.04 µM), 0.68; with Bemcentinib + Bortezomib (first compound 0.1265 µM), 0.855. In addition, the relative viability with Bemcentinib + Bortezomib (first compound 0.4 µM) was 0.92; in the assay with Bemcentinib + Bortezomib (first compound 1.265 µM), 0.628; in the assay with Bemcentinib + Bortezomib (first compound 4 µM) it was 0.701; with Axitinib + Linsitinib (first compound 0.005 µM), 0.969; in the assay with Axitinib + Linsitinib (first compound 0.01581 µM), 0.866; in the assay with Axitinib + Linsitinib (first compound 0.05 µM), 0.916. In addition, the relative viability with Axitinib + Linsitinib (first compound 0.1581 µM) amounted to 0.713; in the assay with Axitinib + Linsitinib (first compound 0.5 µM), 0.759.
